Series [1] in a line: Stability in mouse plasma. The conditions noted are these: for t1/2, Mouse Plasma, Diastereoisomer B: 3 µM. In kind it is in vitro ADME. The protocol: (§1) Compounds and positive control samples were dissolved in 100% DMSO at 3 mM. To investigate the stability of the test compounds in plasma, samples were made by diluting test compounds into plasma from the stock solutions to obtain a test compound concentration of 3 μM (0.1% DMSO). Before addition of a test compound, 990 μl of plasma were preincubated at 37° C. for 5 min in eppendorf. After addition of a test compound, 70 μl for each time point were transferred to a 96-deepwell plate, previously warmed at 37° C. in a DUBNOFF water bath. Each compound was tested at five time points, in duplicate (10, 20, 30, 40 and 60 min). At each time point, an aliquot of 50 μl was taken and transferred to a new 96-deepwell plate, and the reaction was stopped with 200 μl of 100% acetonitrile containing 0.1% formic acid and the appropriate internal standard. Then samples were centrifuged at 1100×g for 30 min at +4° C. and supernatants were transferred to a new 96-deepwell plate. Samples were evaporated under N2 and reconstituted in H2O/ACN 0.1% Formic Acid (98:2). Analysis was performed without a calibration curve (Acquity UPLC-Waters; SciexAPI4000). Time 0 was obtained by adding acetonitrile before addition of the test compound.

Series [2] has as its system PANK2 silenced human neuroblastoma IMR32 cells (PANK2−/−). The series can be described thus: Coenzyme A assay in PANK2 silenced cells (LC-MS quantification of free CoA). In kind it is cell-based. The conditions noted are these: compound added twice (24 h + 24 h), relative to 0.1% DMSO controls. The method in brief: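 PANK2 shRNA-silenced IMR32 neuroblastoma cells were treated with compound (0.1% DMSO) for 24 h, then re-dosed with fresh compound for a further 24 h at 37 °C. TFA extracts of 1×10^6 cells were assayed for free CoA by LC-MS/MS (MRM 768.1→261.6/136.1). Results are given as fold change versus DMSO controls.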

A short description of series [3]: Stability in human plasma. In kind it is in vitro ADME. To be noted: 37° C. The protocol:
as §1

[4] abbreviates: human, plasma, Diastereoisomer A (upfield shift in 31P NMR), read-out: t1/2, Human Plasma, Diastereoisomer A (converted).
[5] abbreviates: human, plasma, Diastereoisomer B, read-out: t1/2, Human Plasma, Diastereoisomer B (converted).

For the compound `COC(=O)CCNC(=O)[C@@H]1OP(=O)(OCCc2cccnc2)OCC1(C)C` (stereo partly drawn) [compound 61, methyl 3-((4R)-5,5-dimethyl-2-oxido-2-(2-(pyridin-3-yl)ethoxy)-1,3,2-dioxaphosphinane-4-carboxamido)propanoate], the half-life at 3 µM was under 9.6 min in series [1] (mouse, plasma); over 60 min in series [3] (setting [4]); over 60 min in series [3] (setting [5]). Also, the “t1/2, Mouse Plasma, Diastereoisomer B” value in series [1] (mouse, plasma) is under 9.6 min. The “PANK2−/− CoA (Fold Increase): fold increase in Coenzyme A (CoA) levels relative to controls” value in series [2] is on record as 1.93 Fold Increase.

For the compound `COC(=O)CCNC(=O)[C@@H]1OP(=O)(NCc2ccncc2)OCC1(C)C` (stereo partly drawn) [compound 125, methyl 3-((4R)-5,5-dimethyl-2-oxido-2-((pyridin-4-ylmethyl)amino)-1,3,2-dioxaphosphinane-4-carboxamido)propanoate], the half-life at 3 µM in series [1] (Diastereoisomer A (upfield shift in 31P NMR), 3 μM, 37° C., mouse plasma, read-out: t1/2, Mouse Plasma, Diastereoisomer A) is under 9.6 min; in series [3] (Diastereoisomer A (upfield shift in 31P NMR), read-out: t1/2, Human Plasma, Diastereoisomer A (converted)), over 60 min. Also, the “PANK2−/− CoA (Fold Increase): fold increase in Coenzyme A (CoA) levels relative to controls” value in series [2] worked out at 1.99 Fold Increase.

As to `CC(C)(C)C(=O)OCOP1(=O)OCC(C)(C)[C@H](C(=O)NCCC(=O)OC2CCOC2)O1` (stereo partly drawn) [Compound No. 94, (((4R)-5,5-dimethyl-2-oxido-4-((3-oxo-3-((tetrahydrofuran-3-yl)oxy)propyl)carbamoyl)-1,3,2-dioxaphosphinan-2-yl)oxy)methyl pivalate], the half-life at 3 µM in series [1] (mouse, plasma) was under 9.6 min; in series [3] (setting [4]) it was 40.8 min; in series [3] (setting [5]), under 9.6 min. For the same compound, in series [1] (mouse, plasma), the “t1/2, Mouse Plasma, Diastereoisomer B” value is under 9.6 min. Besides, in series [2], the “PANK2−/− CoA (Fold Increase): fold increase in Coenzyme A (CoA) levels relative to controls” value is 13.14 Fold Increase.

As for `Cc1cc(COC(=O)CCNC(=O)[C@@H]2OP(=O)(N[C@@H](C)C(=O)OCCc3ccccc3)OCC2(C)C)no1` (stereo partly drawn) [compound 40, (5-methylisoxazol-3-yl)methyl 3-((4R)-5,5-dimethyl-2-oxido-2-(((S)-1-oxo-1-phenethoxypropan-2-yl)amino)-1,3,2-dioxaphosphinane-4-carboxamido)propanoate], the half-life at 3 µM was under 9.6 min in series [1] (mouse, plasma); over 60 min in series [3] (setting [4]); over 60 min in series [3] (setting [5]). Further, in series [1] (mouse, plasma), the “t1/2, Mouse Plasma, Diastereoisomer B” value was under 9.6 min. Moreover, in series [2], the “PANK2−/− CoA (Fold Increase): fold increase in Coenzyme A (CoA) levels relative to controls” value is recorded as 2.77 Fold Increase.

Take `COC(=O)CCNC(=O)[C@@H]1OP(=O)(OCOC(=O)OCc2cccnc2)OCC1(C)C` (stereo partly drawn) [Compound No. 97, Methyl 3-((4R)-5,5-dimethyl-2-oxido-2-((((pyridin-3-ylmethoxy)carbonyl)oxy)methoxy)-1,3,2-dioxaphosphinane-4-carboxamido)propanoate]: the half-life at 3 µM in series [1] (mouse, plasma) is under 9.6 min; in series [3] (setting [4]), under 9.6 min. In series [2], the “PANK2−/− CoA (Fold Increase): fold increase in Coenzyme A (CoA) levels relative to controls” value was determined as 77.04 Fold Increase.

For `COC(=O)CCNC(=O)[C@@H]1OP(=O)(N[C@H](C)C(=O)OCCc2scnc2C)OCC1(C)C` (stereo partly drawn) [compound 32, methyl 3-((4R)-5,5-dimethyl-2-(((R)-1-(2-(4-methylthiazol-5-yl)ethoxy)-1-oxopropan-2-yl)amino)-2-oxido-1,3,2-dioxaphosphinane-4-carboxamido)propanoate], the half-life at 3 µM was under 9.6 min in series [1] (mouse, plasma); over 60 min in series [3] (setting [4]); over 60 min in series [3] (setting [5]). Further, the “t1/2, Mouse Plasma, Diastereoisomer B” value in series [1] (mouse, plasma) was under 9.6 min. Also, in series [2], the “PANK2−/− CoA (Fold Increase): fold increase in Coenzyme A (CoA) levels relative to controls” value was 1.49 Fold Increase.

As for `COC(=O)CCNC(=O)[C@@H]1OP(=O)(OCOC(=O)C2(C)CN(C(=O)OC(C)(C)C)C2)OCC1(C)C` (stereo partly drawn) [Compound No. 85, 1-(tert-butyl) 3-((((4R)-4-((3-methoxy-3-oxopropyl)carbamoyl)-5,5-dimethyl-2-oxido-1,3,2-dioxaphosphinan-2-yl)oxy)methyl) 3-methylazetidine-1,3-dicarboxylate], the half-life at 3 µM in series [1] (mouse, plasma) is under 9.6 min; in series [3] (setting [4]), under 9.6 min; in series [3] (setting [5]) it was under 9.6 min. Further, in series [1] (mouse, plasma), the “t1/2, Mouse Plasma, Diastereoisomer B” value is under 9.6 min. In addition, in series [2], the “PANK2−/− CoA (Fold Increase): fold increase in Coenzyme A (CoA) levels relative to controls” value came out at 216.8 Fold Increase.

The values above are taken from patent US10364263B2, “Cyclic phosphates and cyclic phosphoramidates for the treatment of neurologic disorders” (Retrophin, Inc., priority 2015, dated 2019).
